Measured values as given in patent US4435570A, “5-(Phenyl or benzyl amino)methyl-pyrrolo[2,3-d]pyrimidin-4-one” (Takeda Chemical Industries, Ltd., priority 1981, dated 1984).
Values after ≈ are worked out from the molar mass of the structure shown.

Experiments:
[1] = test system: tRNA in the tumor cells (S-180 cancer-bearing mice); assay: Intake of the radioactive compound into a tumor tissue (tRNA of tumor cells of S-180 cancer-bearing mice); type: in vivo; settings: 100 mg (0.17 mCi)/kg, tail vein once, 24 hours after administration, S-180 i.p. ddN mice
Description: Intake of the radioactive compound of Example 2 into a tumor tissue
Using S-180 cancer-bearing mice (ddN mice, 10^7 tumor cells/mouse as transplanted i.p.), 100 mg (0.17 mCi)/kg of the radioactive compound of Example 2 was administered into the tail vein once. Twenty-four hours after administration, the animal was sacrificed and the tumor cells were taken out and the rate of takeup of the radioactive compound into tRNA in the tumor cells was determined. […] [Experimental method: N. Okada et al., Biochem., 19, 395 (1980)]

[2] = test system: rat liver tRNA-guanine transglycosidase; assay: Intake of compound into tRNA (tRNA-guanine transglycosidase, [3H]guanine-labeled tRNA); type: biochemical; settings: 0.02 OD260 of compound, 0.5 unit enzyme, 100 μl, 37° C., 17 hrs
Description: Intake of the compound of Example 1 into tRNA [^3 H]guanine-labeled tRNA* (8000 cpm), 70 mM Trishydrochloride, 60 mM magnesium chloride, 0.5 unit of rat liver tRNA-guanine transglycosidase and 0.02 OD260 of the compound of Example 1 were adjusted to 100 μl and reacted at 37° C. for 17 hrs. The reaction mixture was absorbed into a strip of Whatman 3 MM filter paper and washed three times with a 5% aqueous solution of trichloroacetic acid, once each with ethanol-ether (1:1) and ether. After drying, the paper strip was scanned with a toluenic scintillant.
* tRNA labeled with [^3 H] guanine in the first letter of its anticodon.
The 0.02 OD260 equivalent of the compound of Example 3 was adjusted to 100 μl and subjected to the same procedure as Experimental Example 1.

[3] = test system: L5178Y cells (tumor cells); assay: Inhibitory effect upon the multiplication of tumor cells; type: cell-based; settings: RPMI 1640 medium+10% fetal calf serum, 48 hours, 37° C.; for IC50: Mus musculus, read-out: ED50 (concentration giving a cell count of 50% of control)
Description: The inhibitory effect of compound (I) upon the multiplication of cells was detected using L5178Y cells (tumor cells) in RPMI 1640 medium+10% fetal calf serum for 48 hours at 37° C.
The result was expressed in the concentration of the drug giving a cell count of 50% (ED50) with the average number of cells for the control (not modicated) group on the 2nd day being taken as 100%.

Row | taken into tRNA [2] [%] | IC50 [3] [µg/mL] | SMILES | rate of takeup of the radioactive compound into tRNA in the tumor cells (tRNA substituted) [1] [%] | ED50 (concentration giving a cell count of 50% of control) [3] [µg/mL]
1 |  |  | N=C(NCc1c[nH]c2nc(N)[nH]c(=O)c12)c1cc(I)c(O)c(I)c1 [Example 2, radioactive 2-amino-5-[α-(3,5-diiodo-4-hydroxy)phenyliminomethylamino]methylpyrrolo[2,3-d]pyrimidin-4-one] | ~100 | 
2 | 59 | 20 (≈ 36.4 µM) | N=C(NCc1c[nH]c2nc(N)[nH]c(=O)c12)c1cc(I)c(O)c(I)c1 [Example 1, 2-amino-5-[α-(3,5-diiodo-4-hydroxy)phenyliminomethylamino]methylpyrrolo[2,3-d]pyrimidin-4-one] |  | 
3 |  |  | Nc1nc2[nH]cc(CN[C@H]3C=C[C@H](O)[C@@H]3O)c2c(=O)[nH]1 [Q base, reference compound] |  | > 200
4 | 93 | 35 (≈ 88.6 µM) | Nc1nc2[nH]cc(CNCc3ccc(I)cc3)c2c(=O)[nH]1 [Example 3, 2-amino-5-(p-iodobenzyl)aminomethylpyrrolo[2,3-d]pyrimidin-4-one] |  | 
